Assay results reported in patent US20030207830A1, “Mutant NDP kinases for antiviral nucleotide analog activation and therapeutic uses thereof” (priority 2002, published 2003).

Experiments:
[1] = test system: human pancreatic adenocarcinoma cell lines; settings: 4-fold overexpression of mitochondrial deoxyguanosine kinase; cited from earlier work
[2] = molecular target: T1, Dictyostelium discoideum NDP kinase (Dd-NDPK) variant N119S, SEQ ID NO: 1 (Dictyostelium discoideum, UniProt P22887, N119S); assay: Pre-steady-state phosphotransfer, fluorescence stopped-flow; type: biochemical; settings: catalytic efficiency of phosphotransfer, N119S, pre-steady state
T1 construct: made in house
Experimental: (§1) (A) Kinetics of reaction of phosphorylated Dictyostelium wild type and N119S NDP kinases by 100 μM Acyclovir diphosphate (Acy-DP). The phosphorylated enzyme was prepared with a stoichiometry #1 as described (Deville-Bonne 1996). The kinases were preincubated with ATP in excess in buffer T (50 mM Tris-HCl, pH 7.5, 5 mM MgCl2 and 75 mM KCl). The increase in fluorescence upon mixing the phospho-enzyme (1 μM, final concentration) with Acy-DP in buffer T at 20° C. was monitored with a stopped-flow. The solid lines represent the best fit of each curve to a monoexponential.
(§2) (B) Concentration dependence of the rate constant on Acy-DP concentation. The pseudo-first order rate constant for the reaction (kobs) was plotted against Acy-DP.
(§3) All numbers in italics have already been published (Schneider, 1998, 2000) The kinetic constants were measured at the pre-steady-state level using a fluorescence stopped-flow device. The binding constants were determined at equilibrium by recording the increase in fluorescence (Schneider, 2000). Values are the average of three independent determinations.
(§4) Wild type human NDPK-A and the mutants were expressed and purified according to Schneider et al., 2000, Mol Pharm. Recombinant wild type and mutant Dd-NDPK were obtained as described (Schneid, 1998a), except for N119Y NDP kinase which was partially purified by Q sepharose FF chromatography. Each protein was characterized by […] electrophoresis. The concentration of 17 kDa subunits of the enzyme was either determined by Bradford assay ([…]) or using an absorbance coefficient of ΔA^280=1.249 for a 1 mg/mL solution of human wild type and N115S NDPK-A, and =0.55 for wild type and mutant N119S, N119T Dd-NDP kinases, respectively.
(§5) As the diphosphate form of analogs were not always available, the triphosphate analogs were used to study phosphate transfer in reaction as in Scheme I. Experiments were performed with an Hi-Tech DX2 microvolume stopped-flow reaction (Schneider, 1998) at Aexc=296 nm (for Ado derivatives) or […] (for other nucleotides), 2 mm excitation slit and a 320 nm cutoff filter at the emission. After mixing NDPK (1 μM) and NTP or an analogTP (10-500 μM), the intrinsic protein fluorescence was recorded for 10-200 sec. In each experiment, 400 pairs of data were recorded, and the data from 3-4 identical experiments were averaged and fitted to a number of non-linear analytical equations using the software provided by Hi-Tech. All curves fitted to single exponentials.
(§6) The data were analyzed using the reaction scheme: [drawing 1]
(§7) In both the forward and the reverse reactions, the product concentration remains very low, thus the product binding can be neglected, and the observed single step could be attributed to the phosphotransfer (Schneider, 1998). The rate of this observed single step is: [formula]
(§8) and reaches a limiting value (k+2) at NTP saturation. Saturation could not be obtained with the concentrations of any NTP used here. Therefore, catalytic efficiencies of phosphorylation (CEphos=k+2/(k−1/k+1)=k+2/KS) were measured, which are equivalent to second order constants and allow a reliable comparison of a variety of NDP kinase substrates.

[3] = molecular target: T2, Dictyostelium discoideum NDP kinase (Dd-NDPK), wild type (Dictyostelium discoideum, UniProt P22887); assay: as above; type: biochemical; settings: catalytic efficiency of phosphotransfer, wt
T2 construct: made in house
Experimental: as §1, §2, §3, §4, §5, §6, §7, §8

[4] = molecular target: T3, Dictyostelium NDP Kinase N119S (Dictyostelium discoideum, UniProt P22887, N119S); assay: Pre-steady-state fluorescence stopped-flow phosphotransfer from nucleoside triphosphates, N119S Dd-NDPK; type: biochemical; settings: pre-steady state, stopped-flow; average of three determinations
T3 construct: made in house
Experimental: as §3, §5, §6, §7, §8

[5] = molecular target: T4, Dictyostelium NDP Kinase wt (Dictyostelium discoideum, UniProt P22887); assay: Pre-steady-state fluorescence stopped-flow phosphotransfer from nucleoside triphosphates, wild type Dd-NDPK; type: biochemical; settings: average of three determinations
T4 construct: made in house
Experimental: (§9) The binding constants were determined at equilibrium by recording the increase in fluorescence (Schneider, 2000).
After mixing NDPK (1 μM) and NTP or an analogTP (10-500 μM), the intrinsic protein fluorescence was recorded for 10-200 sec. In each experiment, 400 pairs of data were recorded, and the data from 3-4 identical experiments were averaged and fitted to a number of non-linear analytical equations using the software provided by Hi-Tech.
as §6
The rate of this observed single step is: [formula]
(§10) and reaches a limiting value (k+2) at NTP saturation. […] Therefore, catalytic efficiencies of phosphorylation (CEphos=k+2/(k−1/k+1)=k+2/KS) were measured, which are equivalent to second order constants and allow a reliable comparison of a variety of NDP kinase substrates.

[6] = molecular target: T5, Dictyostelium discoideum NDP kinase inactive variant EI (H122G-F64W) (Dictyostelium discoideum, UniProt P22887, F64W/H122G); assay: biochemical; type: binding
T5 construct: made in house
Experimental: as §9
(§11) Analog binding affinity was measured using a variant of Dd-NDPK (EI) as described (Schneider, 2000). […] The mutation N119S was inserted in EI in order to measure the nucleotide affinity by fluorescence titration.
(§12) Altered bases as compared to the wild type sequence are underlined in bold. Sequences were checked by automatic sequencing. The mutant EI-N119S was obtained by mutation of the previously described F64W-H122G mutated NDP kinase (here called EI) (Schneider 2000).

[7] = molecular target: T6, Dictyostelium discoideum NDP kinase inactive variant EI-N119S (H122G-F64W-N119S) (Dictyostelium discoideum, UniProt P22887, F64W/H122G/N119S); assay: biochemical; type: binding
T6 construct: made in house
Experimental: as §9, §11, §12

[8] = molecular target: T7, human NDP kinase A (NDPK-A, nm23-H1), wild type (Homo sapiens, UniProt P15531); assay: Pre-steady-state phosphotransfer, fluorescence stopped-flow; type: biochemical; settings: catalytic efficiency of phosphotransfer, NDPK-A, pre-steady state
T7 construct: made in house
Experimental: (§13) FIG. 3 depicts the catalytic efficiency of NDPK-A and mutants for nucleoside analogs. The rates of phosphorylation of pure recombinant NDP kinases (1 μM) were measured at the pre-steady state in a fluorescence stopped-flow with d4T-TP (10 to 80 μM). The catalytic efficiency (expressed in M^−1s^−1) was determined from the variation of the rate as a function of analog as shown in FIG. 2 (▾, NDPK-A, ♦ L55H, ● N115S, ▪ L55H-N115S).
(§14) The activity assays were performed at the pre-steady state level.
as §4
as §5, with “Hi-Tech.” for “Hi-Tech. All curves fitted to single exponentials.”
as §6, §7, §10

[9] = molecular target: T8, human NDP kinase A (NDPK-A) variant L55H (Homo sapiens, UniProt P15531, L55H); assay: as above; type: biochemical; settings: L55H, pre-steady state
T8 construct: made in house; host or cells: E. coli
Experimental: as §13, §14
(§15) R, the specificity change, is the ratio of the catalytic efficiencies (for analog versus natural nucleotide) of the mutant compared to the wild type enzyme.
as §4
as §5, with “Hi-Tech.” for “Hi-Tech. All curves fitted to single exponentials.”
as §6, §7, §10

[10] = molecular target: T9, human NDP kinase A (NDPK-A) variant L55H-N115S, SEQ ID NO: 3 (Homo sapiens, UniProt P15531, L55H/N115S); assay: as above; type: biochemical; settings: L55H-N115S, pre-steady state
T9 construct: made in house; host or cells: E. coli
Experimental: as §13, §14, §15, §4
as §5, with “Hi-Tech.” for “Hi-Tech. All curves fitted to single exponentials.”
as §6, §7, §10

[11] = molecular target: T10, human NDP kinase A (NDPK-A) variant N115S, SEQ ID NO: 2 (Homo sapiens, UniProt P15531, N115S); assay: as above; type: biochemical; settings: N115S, pre-steady state
T10 construct: made in house; host or cells: E. coli
Experimental: as §13, §14, §15, §4
as §5, with “Hi-Tech.” for “Hi-Tech. All curves fitted to single exponentials.”
as §6, §7, §10

[12] = molecular target: T11, Inactive-N119S Dd-NDPK (EI-N119S) (Dictyostelium discoideum, UniProt P22887, F64W/H122G/N119S); assay: Equilibrium fluorescence titration of nucleotide binding, inactive Dd-NDPK variant with N119S; settings: relative affinity of NTP for both enzymes
T11 construct: made in house
Experimental: as §3
In contrast to what is observed with natural nucleotides, the Ser mutation specifically improves the catalytic efficiency with nucleotides analogs as shown in Table I; ddGTPs and AZT-TP react, respectively, 1.5 and 4 times faster with the N119S enzyme. […] Analog binding affinity was measured using a variant of Dd-NDPK (EI) as described (Schneider, 2000). This mutant (H122G-F64W) lacks the catalytic histidine, and a tryptophan replaces the phenylalanine stacking on the base in the active site (Schneider, 2000). The mutation N119S was inserted in EI in order to measure the nucleotide affinity by fluorescence titration. The Ser contribution to the binding was evaluated from the relative affinity of NTP for both enzymes (Table I).
for N119S, N119T and N119Y mutations, respectively. Altered bases as compared to the wild type sequence are underlined in bold. Sequences were checked by automatic sequencing. The mutant EI-N119S was obtained by mutation of the previously described F64W-H122G mutated NDP kinase (here called EI) (Schneider 2000).

[13] = Dd-NDPK mutant; cited from earlier work
[14] = catalytic efficiency of phosphotransfer

T2 sequence (P22887 whole entry): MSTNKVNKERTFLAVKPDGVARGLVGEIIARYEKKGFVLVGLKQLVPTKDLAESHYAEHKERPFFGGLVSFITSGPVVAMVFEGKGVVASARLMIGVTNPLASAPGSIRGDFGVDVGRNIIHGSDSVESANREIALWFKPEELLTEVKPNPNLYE
T4 sequence (P22887 whole entry): as above
T1 sequence (P22887 whole entry N119S): as the sequence (P22887 whole entry) above, with N119S counted along it
T3 sequence (P22887 whole entry N119S): as the sequence (P22887 whole entry) above, with N119S counted along it
T9 sequence (P15531 whole entry L55H/N115S): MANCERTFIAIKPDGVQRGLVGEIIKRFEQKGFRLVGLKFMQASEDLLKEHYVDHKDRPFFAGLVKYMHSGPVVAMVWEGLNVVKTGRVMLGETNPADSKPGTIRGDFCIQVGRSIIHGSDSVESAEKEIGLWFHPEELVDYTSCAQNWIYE
T5 sequence (P22887 whole entry F64W/H122G): as the sequence (P22887 whole entry) above, with F64W, H122G counted along it
T6 sequence (P22887 whole entry F64W/N119S/H122G): as the sequence (P22887 whole entry) above, with F64W, N119S, H122G counted along it
T8 sequence (P15531 whole entry L55H): as the sequence (P15531 whole entry L55H/N115S) above, with S115N counted along it
T10 sequence (P15531 whole entry N115S): as the sequence (P15531 whole entry L55H/N115S) above, with H55L counted along it
T7 sequence (P15531 whole entry): as the sequence (P15531 whole entry L55H/N115S) above, with H55L, S115N counted along it
T11 sequence (P22887 whole entry F64W/N119S/H122G): as the sequence (P22887 whole entry) above, with F64W, N119S, H122G counted along it

Molecule | sensitivity of cells [1] | k2/Ks [2] [M⁻¹ s⁻¹] | k2/Ks [3] [M⁻¹ s⁻¹] | k2/Ks N119S (catalytic efficiency of phosphotransfer) [4] [M⁻¹ s⁻¹] | k2/Ks wt (catalytic efficiency of phosphotransfer) [5] [M⁻¹ s⁻¹] | Kd [6] [nM] | Kd [7] [nM] | also measured
Nc1nc(Cl)nc2c1ncn2[C@H]1C[C@H](O)[C@@H](CO)O1 [CdA] | enhanced sensitivity | – | – | – | – | – | – | –
Cc1cn([C@H]2C[C@H](O)[C@@H](COP(=O)(O)OP(=O)(O)OP(=O)(O)O)O2)c(=O)[nH]c1=O [dTTP] | – | 430000 | 5.7e+06 | 430000 | 5.7e+06 | 1200 | 5200 | k2/Ks [8]: 1.2e+06 M⁻¹ s⁻¹; factor of rate versus wild type NDPK-A [9]: 1.8; k2/Ks [9, 14]: 2e+06 M⁻¹ s⁻¹; factor of rate versus wild type NDPK-A [10]: 0.33; k2/Ks [10, 14]: 450000 M⁻¹ s⁻¹; factor of rate versus wild type NDPK-A [11]: 0.08; k2/Ks [11, 14]: 100000 M⁻¹ s⁻¹
Nc1ncnc2c1ncn2[C@@H]1O[C@H](COP(=O)(O)OP(=O)(O)OP(=O)(O)O)[C@@H](O)[C@H]1O [ATP] | – | 250000 | 4.5e+06 | 250000 | 4.5e+06 | 200 | 2400 | –
Nc1nc2c(ncn2[C@@H]2O[C@H](COP(=O)(O)OP(=O)(O)OP(=O)(O)O)[C@@H](O)[C@H]2O)c(=O)[nH]1 [GTP] | – | 700000 | 8e+06 | 700000 | 8e+06 | 150 | 1100 | –
Nc1nc2c(ncn2[C@@H]2O[C@H](CO)[C@@H](O)[C@@H]2O)c(=O)[nH]1 [araG] | enhanced sensitivity | – | – | – | – | – | – | –
Nc1nc2c(ncn2[C@@H]2O[C@H](CO)[C@@H](O)C2(F)F)c(=O)[nH]1 [dFdG] | enhanced sensitivity | – | – | – | – | – | – | –
Nc1nc2c(ncn2COCCOP(=O)(O)OP(=O)(O)OP(=O)(O)O)c(=O)[nH]1 [acyclovirTP, acyclovir-TP] | – | – | – | 1650 | – | – | – | factor by which Ser 119 reinforces affinity (EI-N119S versus EI) [12]: 10 fold
K16A: Dd-NDPK with Lys 16 mutated into Ala (Schneider 2001) (protein, UniProt P22887 1-155, looked up, variant K16A) Nucleoside diphosphate …: MSTNKVNKERTFLAVAPDGVARGLVGEIIARYEKKGFVLVGLKQLVPTKDLAESHYAEHKERPFFGGLVSFITSGPVVAMVFEGKGVVASARLMIGVTNPLASAPGSIRGDFGVDVGRNIIHGSDSVESANREIALWFKPEELLTEVKPNPNLYE | – | – | – | – | – | – | – | factor of decrease of catalytic constant of phosphotransfer [13]: 100
N119A: Dd-NDPK with Asn 119 mutated into Ala (Schneider 2001) (protein, UniProt P22887 1-155, looked up, variant N119A) Nucleoside diphosphate …: MSTNKVNKERTFLAVKPDGVARGLVGEIIARYEKKGFVLVGLKQLVPTKDLAESHYAEHKERPFFGGLVSFITSGPVVAMVFEGKGVVASARLMIGVTNPLASAPGSIRGDFGVDVGRAIIHGSDSVESANREIALWFKPEELLTEVKPNPNLYE | – | – | – | – | – | – | – | effect of mutation on kinetic parameters of the enzyme [13]: did not affect significantly
